Assay [1] has as its target T1, Aldose reductase (Rattus norvegicus, UniProt P07943).
T1 construct: The crystalline lenses were homogenized in 135 mM sodium-potassium-phosphate buffer; from tissue; host or cells: crystalline lens of 6 week-old male Wistar rats (30,000 rpm supernatant)
The experiment in a line: Aldose reductase activity measurement (in vitro), rat crystalline lens enzyme, NADP fluorescence. It is filed as biochemical, Wistar male rats. As to conditions: 20 mM glucose substrate, 30 min, 30° C., pH 7.0, read-out: 50% inhibition concentration [IC50 (M)]. The method, then: <Aldose reductase activity measurement (in vitro)>
6 week-old Wistar male rats were sacrificed under ether anesthesia and immediately the crystalline lenses were scissored and stored at -20° C.
The crystalline lenses were homogenized in 135 mM sodium-potassium-phosphate buffer, pH 7.0, and centrifuged for 30 min. at 30,000 rpm. The supernatant was used as an aldose-reductase solution. All the above procedures were carried out at 4° C. and the enzyme solution was stored at -20° C.
Aldose reductase activity was determined according to the method as described by Dufrane et al. (Biochemical Medicine, 32, 99-105 (1984)), as follows.
100 μl of the above enzyme solution and 100 μl of a sample solution prepared by dissolving a compound obtained in the following examples to a final concentration of from 1.0×10^-5 to 4.0×10^-7 M in dimethylsulfoxide (DMSO) were added to 800 μl of 135 mM sodium-potassium-phosphate buffer, pH 7.0, containing 100 mM lithium sulfate, 0.03 mM NADPH (reduced nicotinamide adenine dinucleotide phosphate), and 20 mM glucose as a substrate. The sample was allowed to react for 30 min. at 30° C. Then the reaction was stopped by addition of 0.3 ml of 0.5N hydrochloric acid. By adding 1 ml of 6N sodium hydroxide containing 10 mM imidazole, the NADP (oxidized nicotinamide adenine dinucleotide phosphate) formed in the above reaction was converted into a fluorescent substance, and 30 min. thereafter, the sample was measured for fluorescence intensity at the fluorescence wavelength of 460 nm (excitation wavelength: 360 nm) using fluorescence photometer F-4000 (manufactured by Hitachi, Ltd.) at room temperature. A sample containing DMSO in place of the present compound was used as a control group, and its fluorescence intensity was determined in the same manner as described above.
Aldose reductase is an enzyme that converts DL-glyceraldehyde or glucose into polyol in the presence of […] as a coenzyme, and as the reaction proceeds, NADPH is converted into NADP.

For assay [2], the target named is T1, Aldose reductase. Briefly: Aldose reductase activity measurement (in vivo), sorbitol in sciatic nerves of STZ diabetic rats. Conditions: sciatic nerve sorbitol, oral for 2 weeks, 100 mg/kg (other compounds stated at 30 mg/kg). Also noted: species or system Wistar male rats. The method, then:
<Aldose reductase activity measurement (in vivo)>
A solution of streptozotocin (STZ) in 10 mM citrate buffer (pH 4.5) was administered intravenously to the tails of 6 week-old Wistar male rats in a dosage of 65 mg/kg. 48 hours thereafter, blood was collected from the carotid arteries of the rats. Rats with a blood sugar level of higher than 200 mg/dl were classified as diabetic rats, among which rats with a persistent high level of blood sugar were employed in the experiment. The blood sugar level was determined by the glucose oxidase method. […]
After 2-week administration, the sciatic nerves were removed from the rat under ether anesthesia, then weighed, and stored at -20° C.
The content of sorbitol in the sciatic nerves was determined as follows.
The sciatic nerves were extracted at 100° C. for 20 min. with 1 ml purified water containing 10 μg/ml arabinitol, and then 0.2 ml of 0.2M barium hydroxide and 0.2 ml of 0.19M zinc sulfate were added thereto. The sample was centrifuged (3000 rpm, 30 min.) and the supernatant was evaporated to dryness. The residue thus obtained was trimethysilylated and was then analyzed by gas chromatography.
Sorbitol is an intermediate which occurs upon the conversion of glucose into fructose by aldose reductase and is accumulated together with fructose in the crystalline lenses and sciatic nerves particularly under a high level of blood sugar. […]

Take `COc1cc(OC(C)C)cc2oc(Sc3ccc(O)cc3)cc(=O)c12` [Example 6, 2-(4-hydroxyphenylthio)-7-isopropoxy-5-methoxychromone]: in assay [1], the IC50 was 8e-08 M. In the case of `CC(C)Oc1cc(O)c2c(=O)cc(Sc3ccc(O)cc3)oc2c1` [Example 5, 5-hydroxy-2-(4-hydroxyphenylthio)-7-isopropoxychromone], the IC50 in assay [1] was 2.3e-07 M.

On to `COc1c(O)cc2oc(Oc3ccc(O)cc3)cc(=O)c2c1O` [Capillarisin], for which the “Repression (%)” value in assay [2] amounted to 18.9%. Regarding `CC(C)Oc1cc(OC(C)C)c2c(=O)cc(Sc3ccc(O)cc3)oc2c1` [Example 1, 2-(4-hydroxyphenylthio)-5,7-di-isopropoxychromone], the IC50 in assay [1] worked out at 1.8e-08 M. `O=c1cc(Sc2ccc(O)cc2)oc2cc(O)cc(O)c12` [Example 4, 5,7-dihydroxy-2-(4-hydroxyphenylthio)chromone]: the IC50 in assay [1] is 3.2e-07 M.

These data come from US5521216A, “Chromone derivative, and aldose reductase inhibitor comprising said compound as active ingredient” (Tsumura & Co., priority 1992, dated 1996).
